Data set [1] deals with T1, human MCH receptor 1 (MCHR1) (Homo sapiens, UniProt Q99705).
T1 construct: expressed in transfected cells; host or cells: CHO cell clone 57 (membrane fraction)
The data set can be described thus: human MCH receptor 1 (MCHR1) competitive binding assay with [125I]-MCH(4-19). The conditions noted are these: test compound 0.1 μM, human MCHR1-expressing CHO cell membrane fraction, read-out: Binding inhibition rate % (0.1 μM). The procedure, abridged:
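Percent binding inhibition by 0.1 μM test compound, corrected for nonspecific binding defined with unlabeled MCH(1-19), is read by scintillation after filtration onto PEI-treated GF/C filters. The reaction runs 1 hr at room temperature with [125I]-MCH(4-19) and human MCHR1-CHO cell membranes in Tris-HCl pH 7.5 buffer containing EDTA and protease inhibitors.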

The next data set deals with T2, human MCHR1 (Homo sapiens, UniProt Q99705).
T2 construct: expressed in transfected cells; host or cells: CHO dhfr- cells, clone #4
Nature of the data set: MCH receptor 1 antagonistic activity, Ca2+ mobilization assay. Type of data set: cell-based. The conditions noted are these: CHO, test compound 0.1 μM; human MCHR1-expressing CHO cells (clone #4); ligand MCH(4-19) 2 nM; read-out: Inhibitory rate % (0.1 μM). The procedure, abridged: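 CHO dhfr− cells stably expressing human MCHR1 (clone #4) were used in a fluorometric Ca2+ mobilization assay. Test compounds were run at 0.1 μM, with antagonism expressed as percent inhibition.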
In general terms: Calcium flux is commonly read through the fluorescence of an indicator in the cells.

Data set [2] relates to male diet-induced obese F344/Jcl rats. Nature of the data set: Anorectic effect in male diet-induced obese F344/Jcl rats. The conditions noted are these: Rattus norvegicus, po, 48 h, 5 mg/mL suspension at 2 mL/kg, two administrations, food intake for 2 days vs control group, read-out: Food intake suppression rate (%). Format: in vivo, rat. How it is done:
Evaluation of Anorectic Effect Using Male Diet-Induced Obese F344/Jcl Rats
Male diet-induced obese F344/Jcl rats (44-50 weeks old) fed with a high-fat diet (D12451: Research Diets) from 5 weeks old were used. From before the start of experiment, the rats were singly housed, given a powder high-fat diet (D12451M: Research Diets), and habituated to oral administration with tap water. The food intake from the evening of the day before the start of experiment to the next morning was measured, and the rats were grouped based on both the food intake and the body weight of the previous day. In the evening of the day of the start of experiment and the next day, 0.5% methylcellulose solution was orally administered to the control group, and 0.5% methylcellulose suspension (5 mg/mL) of the test compound was orally administered to the compound administration group at 2 mL/kg (6 per group for both control group and compound administration group). The food intake for 2 days from the initial administration was measured. The food intake inhibition rate of each compound administration group to the control group was calculated.

A further data set has as its system HepG2 cells. Nature of the data set: PLsis (phospholipidosis) inducing potential, NBD-PE uptake. Format: cell-based. The conditions noted are these: 24 hr exposure, relative value to 10 μM Amiodarone, maximum value per unit concentration. As to the method: Evaluation of PLsis Inducing Potential
DMEM medium, L-glutamine, penicillin-streptomycin, pyruvic acid, and N-(7-nitrobenz-2-oxa-1,3-diazol-4-yl)-1,2-hexadecanoyl-sn-glycero-3-phosphoethanolamine triethylammonium salt (NBD-PE) were purchased from Invitrogen Corporation. As bovine serum albumin (BSA), a product of Thermo Trace Ltd. (Melbourne, Australia) was used, and as Amiodarone, a product of ICN (Costa Mesa, Calif.) was used. A test compound was used in the form of a 10 mM DMSO solution.
FBS was added at a final concentration of 5 vol % to DMEM medium supplemented with L-glutamine, pyruvic acid and penicillin-streptomycin and subjected to the experiment. Culture was performed using 5% carbon dioxide gas-95% air as a gas phase in a CO2 incubator at 37° C. HepG2 cells were suspended in a culture medium at 50×10^4 cells/mL, plated in a 96 well plate at 50 μL/well and precultured for 24 hr. After preculture, the culture medium was removed, a culture medium containing 60 μM NBD-PE was added at 50 μL/well, and a culture medium containing 0.6 μM or 20 μM test compounds were each added at 50 μL/well to HepG2 cells, and the cells were cultured for 24 hr. As a positive control, Amiodarone was used at a final concentration of 10 μM.
After exposure to the test compound for 24 hr, the fluorescence intensity (Ex. 485 nm, Em. 538 nm) of NBD-PE uptaken by the cells was measured by a fluorometer. The measurement value with addition of 0 μM test compound solution was subtracted as a blank, a relative value to the measurement 5 value with addition of 10 μM Amiodarone was calculated, and the maximum value per unit concentration of the test compound was obtained as a phospholipidosis (PLsis) inducing potential.

T2 sequence (Q99705 whole entry): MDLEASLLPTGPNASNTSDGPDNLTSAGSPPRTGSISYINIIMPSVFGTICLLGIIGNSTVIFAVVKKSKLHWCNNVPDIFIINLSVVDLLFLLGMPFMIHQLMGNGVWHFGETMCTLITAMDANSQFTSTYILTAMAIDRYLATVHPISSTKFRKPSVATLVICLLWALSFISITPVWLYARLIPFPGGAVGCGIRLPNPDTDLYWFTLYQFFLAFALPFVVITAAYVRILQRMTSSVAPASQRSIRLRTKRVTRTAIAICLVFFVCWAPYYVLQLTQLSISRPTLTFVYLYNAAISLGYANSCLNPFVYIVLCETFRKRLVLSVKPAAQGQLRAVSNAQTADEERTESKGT
T1 sequence (Q99705 whole entry): as above

On to `Cc1c(C2CC2)nc2ccc(-n3ccc(OCc4ccc(F)cc4)cc3=O)cn12` [Example 1, 1-(2-Cyclopropyl-3-methylimidazo[1,2-a]pyridin-6-yl)-4-((4-fluorobenzyl)oxy)pyridin-2(1H)-one], for which the inhibition at 0.1 µM is 91% in data set [1] and 98% on human MCHR1. Besides, in data set [2], the inhibition in vivo at 5000 µg/mL, 10 mg/kg was found to be 19.5%. Also, in the data set on HepG2 cells, the PLsis inducing potential is reported as 2.5.

For `Cc1c(C2CC2)nc2ccc(-n3ccc(OCc4ccc(Cl)cc4)cc3=O)cn12` [Example 3, 4-((4-Chlorobenzyl)oxy)-1-(2-cyclopropyl-3-methylimidazo[1,2-a]pyridin-6-yl)pyridin-2(1H)-one], the inhibition at 0.1 µM in data set [1] amounted to 88%; on human MCHR1 it was 99%. The inhibition in vivo at 5000 µg/mL, 10 mg/kg in data set [2] was 29.6%. The same compound had a PLsis inducing potential in the data set with HepG2 cells of 2.4.

Turning to `Cc1c(C2CC2)nc2ccc(-n3ccc(OCc4ccccc4)cc3=O)cn12` [Example 11, 4-(Benzyloxy)-1-(2-cyclopropyl-3-methylimidazo[1,2-a]pyridin-6-yl)pyridin-2(1H)-one], the inhibition at 0.1 µM amounted to 81% in data set [1] and 101% on human MCHR1. Further, the inhibition in vivo at 5000 µg/mL, 10 mg/kg in data set [2] is 21.8%. In the data set with HepG2 cells, this compound had a PLsis inducing potential of 2.0.

`Cn1c(C2CC2)nc2ccc(-n3ccc(OCc4ccc(Cl)cn4)cc3=O)cc21` [Example 112, 4-((5-Chloropyridin-2-yl)methoxy)-1-(2-cyclopropyl-1-methyl-1H-benzimidazol-6-yl)pyridin-2(1H)-one]: the inhibition at 0.1 µM was found to be 70% in data set [1] and 48% on human MCHR1. For the same compound, the inhibition in vivo at 5000 µg/mL, 10 mg/kg in data set [2] was 25.5%. The same compound came in with a PLsis inducing potential in the data set on HepG2 cells of 1.6.

`Cn1c(C2CC2)nc2ccc(-n3ccc(OCc4ccc(F)c(F)c4)cc3=O)cc21` [Example 115, 1-(2-Cyclopropyl-1-methyl-1H-benzimidazol-6-yl)-4-((3,4-difluorobenzyl)oxy)pyridin-2(1H)-one]: in data set [1], the inhibition at 0.1 µM was found to be 82%. Besides, the inhibition in vivo at 5000 µg/mL, 10 mg/kg in data set [2] came to 32%. This compound also displayed a PLsis inducing potential with HepG2 cells of 1.8.

`Cn1c(C2CC2)nc2ccc(-n3ccc(OCc4ccc(Cl)s4)cc3=O)cc21` [Example 121, 4-((5-Chloro-2-thienyl)methoxy)-1-(2-cyclopropyl-1-methyl-1H-benzimidazol-6-yl)pyridin-2(1H)-one]: the inhibition at 0.1 µM in data set [1] is 95%; at human MCHR1, 96%. Moreover, the inhibition in vivo at 5000 µg/mL, 10 mg/kg in data set [2] amounted to 36.5%. Besides, in the data set with HepG2 cells, the PLsis inducing potential was 1.7.

`Cn1c(C2CC2)nc2ccc(-n3ccc(OCc4csc(Cl)c4)cc3=O)cc21` [Example 143, 4-((5-Chloro-3-thienyl)methoxy)-1-(2-cyclopropyl-1-methyl-1H-benzimidazol-6-yl)pyridin-2(1H)-one]: the inhibition at 0.1 µM in data set [1] is 91%. Further, the inhibition in vivo at 5000 µg/mL, 10 mg/kg in data set [2] worked out at 39.4%. Further, the PLsis inducing potential with HepG2 cells was determined as 1.6.

Turning to `Cc1c(C2CC2)nc2ccc(-n3ccc(OCc4ccc(F)s4)cc3=O)cn12` [Example 156, 1-(2-Cyclopropyl-3-methylimidazo[1,2-a]pyridin-6-yl)-4-((5-fluorothiophen-2-yl)methoxy)pyridin-2(1H)-one], the figures for the inhibition at 0.1 µM (in data set [1]; on human MCHR1) were 48% and 90%, respectively. This compound yielded a PLsis inducing potential in the data set with HepG2 cells of 2.0.

Turning to `CCc1nc2ccc(-n3ccc(OCc4csc(Cl)c4)cc3=O)cc2n1C` [Example 226, 4-((5-Chloro-3-thienyl)methoxy)-1-(2-ethyl-1-methyl-1H-benzimidazol-6-yl)pyridin-2(1H)-one], the inhibition at 0.1 µM in data set [1] was determined as 89%; at human MCHR1 it was 106%. In the data set on HepG2 cells, this compound showed a PLsis inducing potential of 2.1.

As to `Cc1nc2ccc(-n3ccc(OCc4csc(C(F)(F)F)c4)cc3=O)cc2n1C` [Example 290, 1-(1,2-Dimethyl-1H-benzimidazol-6-yl)-4-((5-(trifluoromethyl)thiophen-3-yl)methoxy)pyridin-2(1H)-one], the inhibition at 0.1 µM in data set [1] amounted to 77%; on human MCHR1, 90%. Moreover, the inhibition in vivo at 5000 µg/mL, 10 mg/kg in data set [2] was 43.5%.
